Where “and” joins values, the source holds several entries; their conditions need not be identical. Equal entries are not always repeated.
Key:
Assay type in all cases: in vivo, dog
A. caninum [1] = assay: Canine vaccine trial with Ac-ASP-2, Ac-API, Ac-MEP-1, Ac-APR-1 in AS03, footpad challenge with 500 A. caninum L3
Protocol: The vaccine trial was designed to test Ac-API, Ac-ASP-2, Ac-MEP-1, Ac-APR-1 formulated with Adjuvant System 03 (AS03) obtained from GlaxoSmithKline (GSK). The rationale for selecting AS03 as an adjuvants is discussed elsewhere (Stoute et al, 1997). […] To make six doses of antigen formulated with AS03, […] of recombinant protein (0.3 ml of antigen at a concentration of 2 mg.ml^−1) was mixed with 1.2 ml of 20 mM Tris-HCl, 0.5 M NaCl, pH 7.9 and 1.5 ml of AS03; the contents of the tube were vortex mixed for 30 seconds then shaken at low speed for 10 minutes. Dogs were immunized with 100 g of formulated antigen in a final volume of 0.5 ml. ASO3 only control was prepared as described above, with PBS included instead of antigen. Formulation of GSK adjuvants were conducted according to the protocol provided by GSK. All injections were performed intramuscularly (IM). Test and control articles were prepared on the day of injection. All animals received 4 immunizations approximately 3 weeks apart.
A. caninum larvae were cultured from eggs collected in the feces of infected dogs. All hookworms in the infective challenge were approximately equal age (17±7 days post hatching). The species identity of the infective larvae were validated using PCR. All dogs were infected by the footpad method with the same dose of 500 L3 of A. caninum (Zhan et al, 2001). Larval challenge occurred on one of three consecutive days (at age 120+/−9 days). Fourteen-sixteen days after the final immunization, dogs were anesthetized using a combination of ketamine and xylazine (20 mg.kg^−1 and 10 mg.kg^−1 respectively), and 500 A. caninum L3 in a final volume of […] were applied to the footpad.

A. caninum [2] = assay: Canine vaccine trial with Ac-TMP, Ac-AP, Ac-APR-1, oral challenge with 400 A. caninum L3
Excerpt: Study dogs and animal husbandry: Following protocol approval by The George Washington University Institutional Animal Care and Use Committee (IACUC), purpose bred, parasite naïve, male beagles 8±1 week of age were purchased, identified by ear tattoo, and maintained in the AALAC (Association for Assessment and Accreditation of Laboratory Animal Care) accredited George Washington University Animal Research Facility. The dogs were housed in a room dedicated for the study, at a room temperature of 70±4° F., with 10-15 air changes per hour comprised of 100 percent fresh air, and 12 hr light cycles alternating with 12 hr dark cycles. The airflow and timer functions were monitored daily. The dogs were fed on a diet of Teklad Certified Dog Chow #8727, supplemented with a canned soft diet in the event of anorexia. The drinking water was piped from a filter plant and delivered via automatc water system; water analysis was performed by the U.S. Army Corps of Engineers. Water from the facilities automatic system is cultured for bacteria and fungi annually. The pens were flushed daily and sanitized every two weeks. Dogs within a given study group were permitted to live together and socialize prior to the hookworm larval challenge, but were caged individually post-infection. All dogs were quarantined for approximately one week before beginning the vaccine trial. Prior to vaccination a complete blood count (CBC), serum chemistries, and a pre-vaccination serum sample were obtained.
Vaccine study design and sample size: The vaccine trial was designed to test three different antigens, each formulated with alum, as well as an alum adjuvant control. A total of 24 dogs were randomly assigned into four groups comprised of 6 dogs each. The canine sample size was selected on the ability to detect a 40-50 percent reduction in the numbers of adult hookworms in the small intestines of the vaccinated group relative to control dogs, at a statistical power of 80 percent (alpha=0.05, two-tailed). The data were derived from the mean and standard deviation of adult hookworms previously recovered from age-matched dogs infected with 400 A. caninum L3 (Hotez et al, 2002).
Recombinant Antigens: Each group of 6 dogs was vaccinated with recombinant hookworm proteins expressed as fusion proteins either in Escherichia coli or in an insect cell line with baculovirus. Ac-AP (Cappello et al, 1995; 1996) and Ac-TMP, were expressed in E. coli as pET 28 (Novagen) fusion proteins containing a polyhistidine tag (Cappello et al, 1996). Ac-APR-1 (Harrop et al, 1996) was expressed in a baculovirus pBacPAK6 vector (Clontech), modified to contain a polyhistidine-encoding sequence and additional restriction enzyme sites (Brindley et al, 2001). Recombinant Ac-AP and Ac-TMP fusion proteins were then purified by nickel affinity chromatography, followed by a second step of purification. In the case of Ac-AP (Cappello et al, 1995; 1996), the recombinant protein was purified by mono-S (Amersham-Pharmacia) ion exchange chromatography, while Ac-TMP (Zhan et al, 2002) was purified by superdex 75 (Amersham-Pharmacia) gel filtration chromatography. Ac-APR-1 (Harrop et al, 1996) was purified by substrate affinity chromatography using pepstatin agarose (Brindley et al, 2001). The antigen stock protein concentration was determined by Pierce Micro BCA assay (Pierce Chemicals) or by the absorbance of the sample at […] using an extinction coefficient that was calculated from the deduced amino acid composition of the fusion protein. The amount of alum adsorbed protein in each dose of antigen was measured by the Pierce Micro BCA assay using a bovine serum albumin standard. The relative purity of each of the antigens relative to contaminating E. coli or insect cell proteins was determined by analysis on sodium dodecyl sulfate polyacrylamide gel electrophoresis (SDS-PAGE). […]

[3] = test system: antibody to recombinant proteins; assay: Pre-challenge antibody titer ELISA, trial with Ac-ASP-2, Ac-API, Ac-MEP-1, Ac-APR-1 in AS03
Protocol: The vaccine trial was designed to test Ac-API, Ac-ASP-2, Ac-MEP-1, Ac-APR-1 formulated with Adjuvant System 03 (AS03) obtained from GlaxoSmithKline (GSK). The rationale for selecting AS03 as an adjuvants is discussed elsewhere (Stoute et al, 1997). The ten purpose bred beagles were randomized into five arms: immunized with the adjuvant-formulated recombinant proteins or adjuvant only (control). To make six doses of antigen formulated with AS03, […] of recombinant protein (0.3 ml of antigen at a concentration of 2 mg.ml^−1) was mixed with 1.2 ml of 20 mM Tris-HCl, 0.5 M NaCl, pH 7.9 and 1.5 ml of AS03; the contents of the tube were vortex mixed for 30 seconds then shaken at low speed for 10 minutes. Dogs were immunized with 100 g of formulated antigen in a final volume of 0.5 ml. ASO3 only control was prepared as described above, with PBS included instead of antigen. Formulation of GSK adjuvants were conducted according to the protocol provided by GSK. All injections were performed intramuscularly (IM). Test and control articles were prepared on the day of injection. All animals received 4 immunizations approximately 3 weeks apart.
Beagles were immunized with formulated Ac-ASP-2 as previously described (Loukas et al, 2004). The vaccines were administered IM three times beginning at age 62+/−4 days. Boosts were administered to the dogs at intervals of 21 days. Blood was drawn at least once every 21 days and serum was separated from cells by centrifugation. Each animal's specific antibody response was evaluated by indirect ELISA using serum taken prior to the infective challenge (Loukas et al, 2004). Recombinant Ac-ASP-2 was coated onto microtiter plates at a concentration of 5 g.ml^−1. Dog sera were titrated between 1:100 and 1:2×10^6 to determine endpoint titers. Anti-canine IgG1, IgG2 and IgE antibodies conjugated to horse-radish peroxidase (Bethyl Laboratories) were used at a dilution of 1:1,000.

A. caninum [4] = assay: Canine vaccine trial HV-12, percutaneous challenge with 500 A. caninum L3
Protocol: (§1) Brief Outline of Study Sections: Purpose bred beagles were randomized into five groups. […] groups were given one of three candidate vaccines: Ac-Cystatin, Ac-MTP-2 and Ac-GST in combination with the adjuvant ASO3. One group will serve as the negative control receiving the adjuvant only. Another group will be a positive control immunized with irradiated infective larvae. Each animal's specific antibody response was evaluated by direct ELISA using serum taken prior to the infective challenge. Cellular immune responses were assessed by peripheral (blood cells) lymphoproliferative responses to specific recombinant antigens and/or crude extract of infective larvae (L3) or adult worms. Local cellular immune responses were performed post mortem with lymphocytes extracted from mesenteric lymph nodes and, if considered, spleen. After immunization, animals were challenged with a known number dose of infective third stage larvae of A. caninum. Quantitative ova counts, used to evaluate worm burden, were determined from fecal samples collected three times per week. […] Tissues from different organs were examined macro and microscopically to assess any consequence of the vaccine, parasite or immune related lesions.
(§2) Administration of Test and Control Articles: The vaccines and adjuvant were administered intramuscularly (IM) […] beginning when the dogs are 62+/−4 days old. The vaccines are boosted at 21+/−3-day intervals. Four doses of the vaccines were given 21 days apart (days 0, 21, 42, and […]). The dogs were challenged percutaneously with 500 A. caninum L3, 14 days after the final vaccination.
Challenge Infection: Ancylostoma caninum larvae were cultured from the eggs collected in the feces of infected dogs. All hookworms in the infective challenge were approximately equal age (17±7 days). The species identity of the infective larva dose were validated using PCR DNA amplification and specific oligonucleotide primers. Overnight-collected feces of A. caninum-infected dogs were cultured, extracted and counted. All dogs were infected by the footpad method with the same dose (500+/−5%, of 3rd stage larvae of A. caninum. Larval challenge occurs on one of three consecutive days (at age 120+/−9 days) in 5 series. To minimize the difference in the infective L3 doses, each series included one dog from each (A-E group). […]
Adult Worm Count. Adult worms retained in the small and large intestines were collected. The small and large bowel will be collected and the small intestine will be suspended (the large bowel will not be suspended) in a container and incubated for at least two hours at 35° C. saline to collect the adult parasites. The adult worms were separated from the intestinal contents, counted, and preserved in formalin for subsequent count and analysis of sex, length and weight. Results and Analysis

[5] = test system: antigen-specific IgG1 and IgG2; assay: Antibody titers in HV-12 (Ac-CYS, Ac-MTP-2, Ac-GST in AS03, irradiated L3)
Protocol: as §1, §2
Serum Samples for Quantitative ELISA Antibody Titers: Animals treated with vaccines containing foreign proteins develop an immune response resulting in an increased level of high affinity serum antibodies that are directed against the antigen. […] White blood cells were collected for immunological measurements nine (9) days after the last boost and at the time of euthanasia to address the cellular immune response status and cytokine production upon in vitro restimulation of lymphocytes.

## Ac-APR-1: A. caninum aspartic protease (cathepsin), SEQ ID NO: 50; baculovirus expressed
A. caninum [1]; 5 dogs
  worm burdens, Maximum: 250.00
  worm burdens, Minimum: 119.00
A. caninum [1]; 5 dogs, ASO3 control 203.8000
  worm burdens, Mean: 177.0000
A. caninum [1]; 5 dogs, ASO3 control 215.0000
  worm burdens, Median: 168.0000
A. caninum [1]; dog A3 (ASP-2 group), dog D2 (APR-1 group), versus control mean
  worm burden reduction in a single dog: 42%
A. caninum [1]; group average, AS03 control 5
  worm burden, Colon, Male, Average: 4
A. caninum [1]; group average, AS03 control 9
  worm burden, Colon, Female, Average: 6
A. caninum [1]; group average, AS03 control 95
  worm burden, Intestine, Female, Average: 79
A. caninum [1]; group average, AS03 control 96
  worm burden, Intestine, Male, Average: 83
A. caninum [1]; group average, AS03 control 204
  worm burden, Total, Average: 177
A. caninum [1]; individual dogs
  worm burden, Colon, Female: 1 and 18 and 3 and 8 and 0
  worm burden, Colon, Male: 0 (2×) and 11 and 3 and 5
  worm burden, Intestine, Female: 76 and 41 and 69 and 87 and 122
  worm burden, Intestine, Male: 65 and 47 and 131 and 124 and 49
  worm burden, Total: 168 and 119 and 146 and 202 and 250
A. caninum [1]; relative to the control group
  fecal eggs (fecundity), in words: significant reduction in fecal eggs
A. caninum [2]; group
  % Decrease of adult hookworms in the small intestines relative to alum-injected dogs: 18%
  % Increase of adult hookworms in the colons relative to alum-injected dogs: 300%
A. caninum [2]; group median, alum control 4
  adult A. caninum hookworms in the colons, Median: 27
A. caninum [2]; group median, alum control 180
  adult hookworms in the small intestines, Median: 138
A. caninum [2]; vaccinated group, alum-injected dogs 43.9
  ratio of adult hookworms in the small intestine relative to the colon: 7.3
[3]; AS03
  antibody response, in words: only a single dog developed a substantial antibody titer
[3]; geometric mean of group
  Pre-challenge antibody titer, IgG1, GEOMEAN: 100
  Pre-challenge antibody titer, IgG2, GEOMEAN: 562
[3]; individual dogs
  Pre-challenge antibody titer, IgG1: 100
  Pre-challenge antibody titer, IgG2: 500 (3×) and 4,500 and 100

B1: Ac-GST: A. caninum glutathione S transferase, SEQ ID NO: 77; Pichia pastoris expressed (protein, listed as Ancylostoma caninum)
chain: MVHYKLTYFNGRGLGECARQLFALADQQYEDIRVTHEDFPEIKPNLPFGQLPLLNEDGKELAQSNAINRYLARKFGFAGKTPFEEALVDSLADQMTDYRVEIKPFVYTAYGHQKFGDLETLKKDVMLPARDKFLGFITKFLKNNPSGFLVGDSVTWIDLLLAEHASDIQSKVPEYLEGFPEVKAHMEKVRSIPKLKKWIETRPETHF
A. caninum [4]; dog, in vivo, listed as GST
  worm burden reduction relative to AS03 controls: 40% and 41%
A. caninum [4]; group average, AS03 control 64
  Adult Hookworm Worm Counts, Intestine, Male, Average: 34
A. caninum [4]; group average, AS03 control 71
  Adult Hookworm Worm Counts, Intestine, Female, Average: 44
A. caninum [4]; group average, AS03 control 137
  Adult Hookworm Worm Counts, Total, Average: 83
A. caninum [4]; individual dogs, listed as GST
  Adult Hookworm Worm Counts, Colon, Female: 0 (2×) and 3 and 4 and 5
  Adult Hookworm Worm Counts, Colon, Male: 0 (2×) and 4 and 7 and 2
  Adult Hookworm Worm Counts, Intestine, Female: 81 and 26 and 36 (2×) and 41
  Adult Hookworm Worm Counts, Intestine, Male: 50 and 34 and 19 and 33 (2×)
  Adult Hookworm Worm Counts, Total: 131 and 67 and 55 and 80 and 81
[5]; geometric mean of group
  Antibody titers, IgG1, GEOMEAN: 13,500
  Antibody titers, IgG2, GEOMEAN: 50,452
[5]; individual dogs, after four immunizations, L3 Extract = group E dogs vaccinated with irradiated L3
  Antibody titers, IgG1: 13,500
[5]; individual dogs, after four immunizations, L3 Extract = group E dogs vaccinated with irradiated L3, listed as GST
  Antibody titers, IgG2: 40,500 (4×) and 121,500

Source: patent publication US7303752B2, “Hookworm vaccine” (The George Washington University, priority 2001, dated 2007)
